In patent US5674432A, “Photochromic naphthopyran compounds” (Transitions Optical, Inc., priority 1995, dated 1997):

Experiments:
[1] = lambda max (UV) in diethylene glycol dimethyl ether solution by UV spectrophotometer; type: physicochemical; parameters: unit not given here; conditions: approximately 0.5 milligram per milliliter, wavelength in the ultraviolet range closest to the visible spectrum
Procedure: The compounds of the Examples and the Comparative Examples were dissolved in diethylene glycol dimethyl ether. The concentrations of the resulting solutions were approximately 0.5 milligram per milliliter. Each solution was tested in a UV spectrophotometer to determine the lambda max (U/V). The lambda max (UV) reported in Table 1 for each of the Examples is the wavelength in the ultraviolet range closest to the visible spectrum.

[2] = lambda max (VIS) of the activated (colored) form in a homopolymer of diethylene glycol bis(allyl carbonate); type: physicochemical
Procedure: (§1) Testing was done with selected photochromic naphthopyrans imbibed into test square polymerizates by a thermal transfer process. The test square polymerizates were prepared from a homopolymer of diethylene glycol bis(allyl carbonate) and measured 1/8 inch (0.3 centimeters)×2 inches (5.1 centimeters)×2 inches (5.1 centimeters). The test squares were imbibed by the following procedure. Each naphthopyran was dissolved .into toluene to form a 4 weight percent solution of the compound. A piece of No.4 Whatman filter paper was saturated with the naphthopyran toluene solution and allowed to air dry. The dried filter paper was placed on one side of the test square. A piece of untreated filter paper was placed on the other side of the polymeric test square and the resulting sandwich was placed between two flat aluminum metal plates. The entire assembly was then placed in an oven kept at 135° to 155° C. for a time sufficient to thermally transfer the naphthopyran into the polymeric test square. After cooling, each test square was washed with acetone.
The photochromic test squares of Part B were tested for photochromic response rates on an optical bench. Prior to testing on the optical bench, the photochromic test squares were exposed to 365 nanometer ultraviolet light for about 15 minutes to activate the photochromic compounds and then placed into a 76° C. oven for about 15 minutes to bleach or inactivate the photochromic compounds. The test squares were then cooled to room temperature, exposed to fluorescent room lighting for at least 2 hours and then kept covered for at least 2 hours prior to testing on an optical bench maintained at 75° F. (23.9° C.).
(§2) The optical bench comprises a 150 watt Xenon arc lamp, a tungsten lamp, power supplies for both lamps, condensing lenses as needed to maintain collimated light beams from both lamps, a remote controlled shutter, a copper sulfate bath acting as a heat sink for the arc lamp, a Schott WG-320 nm cut-off filter which removes short wavelength radiation, neutral density filter(s), a sample holder in which the sample to be tested is inserted, a photopic filter, light detector, and radiometer assembly, a strip chart recorder, and a means for maintaining the alignment of the aforestated components during testing.
The ΔOD/Min, which represents the sensitivity of the photochromic compound's response to UV light, was measured over the first five (5) seconds of UV exposure, then expressed on a per minute basis. The saturation optical density (OD) was taken under identical conditions as the ΔOD/Min, except UV exposure was continued for 20 minutes. The lambda max (VIS) reported in Table 2 is the wavelength in the visible spectrum at which the maximum absorption of the activated (colored) form of the photochromic compound in a homopolymer of diethylene glycol bis(allyl carbonate) occurs. The bleach rate (T 1/2) is the time interval in seconds for the absorbance of the activated form of the naphthopyran in the test squares to reach one half the highest absorbance at room temperature (75° F., 23.9° C.) after removal of the source of activating light.

[3] = photochromic response on an optical bench (sensitivity, saturation optical density, bleach rate) of imbibed test squares; type: physicochemical; conditions: for OD @ SATURATION: UV exposure continued for 20 minutes; for OD @ SATURATION / Δ OD/Min SENSITIVITY: 75° F. (23.9° C.); for Δ OD/Min SENSITIVITY: first five (5) seconds of UV exposure, expressed per minute; for BLEACH RATE T1/2: time for absorbance of activated form to reach one half the highest absorbance at room temperature (75° F., 23.9° C.) after removal of activating light
Procedure: as §1, with “The entire assembly was then placed in an oven kept at 135° to 155° C. for a time sufficient to thermally transfer the naphthopyran into the polymeric test square.” left out
The photochromic test squares of Part B were tested for photochromic response rates on an optical bench.
as §2
Change in optical density (ΔOD) of a sample was determined by inserting a photochromic test sample in the bleached state into the sample holder, adjusting the transmittance scale to 100%, opening the shutter from the Xenon lamp to provide ultraviolet radiation to change the sample from the bleached state to an activated (darkened) state, measuring the transmittance through the sample. The transmittance was measured by directing a beam of light from the tungsten lamp at a small angle normal to the surface of the sample, through the sample, and to a photopic filter, light detector and radiometer assembly. The photopic filter passes wavelengths such that the detector mimics the response of the human eye and produces output signals that are processed by the radiometer. The change in optical density was calculated according to the formula ΔOD=log(100/% Ta) where % Ta is the percent transmittance in the activated state and the logarithm is to the base 10.
The ΔOD/Min, which represents the sensitivity of the photochromic compound's response to UV light, was measured over the first five (5) seconds of UV exposure, then expressed on a per minute basis. The saturation optical density (OD) was taken under identical conditions as the ΔOD/Min, except UV exposure was continued for 20 minutes. The lambda max (VIS) reported in Table 2 is the wavelength in the visible spectrum at which the maximum absorption of the activated (colored) form of the photochromic compound in a homopolymer of diethylene glycol bis(allyl carbonate) occurs.

[4] = cited from earlier work
[5] = vs 3,3-diphenyl-3H-naphtho[2,1-b]pyran and 5-, 7- or 9-methoxy compounds, U.S. Pat. No. 5,238,981

Question: With `Cc1cccc(C2(c3ccccc3)C=Cc3c(ccc4c5c(ccc34)OC(C)C5)O2)c1` (stereo not drawn) [Example 1, 7-(phenyl)-7-(3-methylphenyl)-7H-2-methyl-2,3-dihydrofuro[3',2',:5,6]naphtho[2,1-b]pyran] as the compound, how does the “Lambda max (UV)” value [1] read?
Answer: Its value is 394.

Question: With `COc1cccc(C2(c3ccccc3)C=Cc3c(ccc4c5c(ccc34)OC(C)C5)O2)c1` (stereo not drawn) [Example 5, 7-(phenyl)-7-(3-methoxyphenyl)-7H-2-methyl-2,3-dihydrofuro[3',2',:5,6]naphtho[2,1-b]pyran] as the compound, how does the “LAMBDA MAX (VIS)” value [2] read?
Answer: The value was 495 nm.

Question: What about the “OD @ SATURATION” value [3] of the same compound?
Answer: Its value is 0.74.

Question: And the “Δ OD/Min SENSITIVITY” value [3]?
Answer: The value was 1.43 Δ OD/Min.

Question: And the “BLEACH RATE T1/2” value [3]?
Answer: Its value is 2.75 min.

Question: And the “Lambda max (UV)” value [1]?
Answer: Its value is 395.

Question: Which results are given for `CC1Cc2c(ccc3c4c(ccc23)OC(c2ccccc2)(c2cccc(C(F)(F)F)c2)C=C4)O1` (stereo not drawn) [Example 3, 7-(phenyl)-7-(3-trifluoromethylphenyl)-7H-2-methyl-2,3-dihydrofuro[3',2',:5,6]naphtho[2,1-b]pyran]?
Answer: LAMBDA MAX (VIS) [2]: 494 nm; OD @ SATURATION [3]: 0.74; Δ OD/Min SENSITIVITY [3]: 1.38 Δ OD/Min; BLEACH RATE T1/2 [3]: 2.18 min; Lambda max (UV) [1]: 396

Question: Which results are given for `CC1Cc2c(ccc3c4c(ccc23)OC(c2ccccc2)(c2cccc(F)c2)C=C4)O1` (stereo not drawn) [Example 4, 7-(phenyl)-7-(3-fluorophenyl)-7H-2-methyl-2,3-dihydrofuro[3',2',:5,6]naphtho[2,1-b]pyran]?
Answer: LAMBDA MAX (VIS) [2]: 489 nm; OD @ SATURATION [3]: 0.76; Δ OD/Min SENSITIVITY [3]: 1.44 Δ OD/Min; BLEACH RATE T1/2 [3]: 1.82 min; Lambda max (UV) [1]: 394

Question: With `Cc1coc2ccc3c4c(ccc3c12)OC(c1ccccc1)(c1ccccc1)C=C4` [Example 7, 7,7-diphenyl-7H-3-methylfuro[3',2',:5,6]naphtho[2,1-b]pyran] as the compound, how does the “Lambda max (UV)” value [1] read?
Answer: The value was 372.

Question: Which results are given for `CC1Cc2c(ccc3c4c(ccc23)OC(c2ccccc2)(c2ccccc2)C=C4)O1` (stereo not drawn) [Example 2, 7,7-diphenyl-7H-2-methyl-2,3-dihydrofuro[3',2',:5,6]naphtho[2,1-b]pyran]?
Answer: LAMBDA MAX (VIS) [2]: 488 nm; OD @ SATURATION [3]: 0.66; Δ OD/Min SENSITIVITY [3]: 1.35 Δ OD/Min; BLEACH RATE T1/2 [3]: 1.77 min; Lambda max (UV) [1]: 394

Question: For `COc1ccc2c3c(ccc2c1)OC(c1ccccc1)(c1ccccc1)C=C3` [Comparative Example 2, 3,3-diphenyl-8-methoxy-3H-naphtho[2,1-b]pyran, reference compound], which “lambda max (UV), in words” value ([4]; near visible threshold range about 390 to 410 nanometers, U.S. Pat. No. 5,238,981) is on record?
Answer: Its value is “shifted towards the near visible threshold range”.

Question: What about the “optical density at saturation, comparison in words” value [4, 5] of the same compound?
Answer: The value was “enhanced sensitivity and optical density at saturation”.

Question: And the “sensitivity, comparison in words” value [4, 5]?
Answer: The value was “enhanced sensitivity”.

Question: What about the “LAMBDA MAX (VIS)” value [2] of the same compound?
Answer: The value was 473 nm.

Question: And the “OD @ SATURATION” value [3]?
Answer: Its value is 0.73.

Question: What about the “Δ OD/Min SENSITIVITY” value [3] of the same compound?
Answer: The value was 1.25 Δ OD/Min.

Question: What about the “BLEACH RATE T1/2” value [3] of the same compound?
Answer: The value was 1.45 min.

Question: What about the “Lambda max (UV)” value [1] of the same compound?
Answer: The value was 376.

Question: Which “optical density at saturation” value ([4]; at room temperature and above) does the source give for `C1=CC(c2ccccc2)(c2ccccc2)Oc2ccc3ccccc3c21` [Comparative Example 1, 3,3-diphenyl-3H-naphtho[2,1-b]pyran, reference compound] here?
Answer: Its value is “too low for use in optical applications”.

Question: And the “optical density change on exposure to ultraviolet light” value ([4]; at room temperature and above)?
Answer: The value was “changes too slowly”.

Question: What about the “sensitivity on exposure to ultraviolet light” value ([4]; at room temperature and above) of the same compound?
Answer: Its value is “low”.

Question: What about the “LAMBDA MAX (VIS)” value [2] of the same compound?
Answer: The value was 430 nm.

Question: And the “OD @ SATURATION” value [3]?
Answer: The value was 0.36.

Question: And the “Δ OD/Min SENSITIVITY” value [3]?
Answer: Its value is 0.87 Δ OD/Min.

Question: And the “BLEACH RATE T1/2” value [3]?
Answer: The value was 0.75 min.

Question: And the “Lambda max (UV)” value [1]?
Answer: The value was 359.

Question: For `C1=CC(c2ccccc2)(c2ccccc2)Oc2ccc3c4c(ccc3c21)OCCC4` [Example 8, 9,9-diphenyl-3H,9H-1,2-dihydronaphtho[2,1-b:6,5-b']dipyran], which “Lambda max (UV)” value [1] is on record?
Answer: Its value is 382.

Question: For `COc1ccc(C2(c3ccccc3F)C=Cc3c(ccc4c5c(ccc34)OC(C)C5)O2)cc1` (stereo not drawn) [Example 6, 7-(2-fluorophenyl)-7-(4-methoxyphenyl)-7H-2-methyl-2,3-dihydrofuro[3',2',:5,6]naphtho[2,1-b]pyran], which “Lambda max (UV)” value [1] is on record?
Answer: The value was 393.

Question: Which “Lambda max (UV)” value [1] does the source give for `COc1ccc(C2(c3ccc(OC)cc3OC)C=Cc3c(ccc4c3ccc3oc(=O)cc(C)c34)O2)cc1` (stereo not drawn) [Example 9, 9-(2,4-dimethoxyphenyl)-9-(4'-methoxyphenyl)-1-methyl-3H,9H-naphtho[2,1-b:6,5-b']dipyran-3-one] here?
Answer: The value was 396.

Question: Which “Lambda max (UV)” value [1] does the source give for `COc1ccc(C2(c3ccc(OC)cc3OC)C=Cc3c(ccc4c3ccc3oc(C)cc(=O)c34)O2)cc1` (stereo not drawn) [Example 10, 9-(2,4-dimethoxyphenyl)-9-(4'-methoxyphenyl)-3-methyl-1H,9H-naphtho[2,1-b:6,5-b']dipyran-1-one] here?
Answer: The value was 384.
